In patent USRE42700E1, “Induction of apoptosis in cancer cells” (Sanford-Burnham Medical Research Institute, priority 2001, dated 2011):

What was measured:
[1] = biological target: RARα (Homo sapiens, UniProt P10276); experiment: activation of RARα on the (TREpal)2-tk-CAT reporter construct; type: cell-based; details: 1.0 μM
[2] = system: leukemic blasts from patients (AML or CML in blast crisis); experiment: proliferation of patient leukemic blasts; type: cell-based; details: Homo sapiens
Procedure: Cell Growth: IL-3-transfected M07e cells have been described by Thacker, D. J., et al., Leukemia 8: 871-877 (1994). Cells were grown in RPMI supplemented with 5 percent heat-inactivated fetal bovine serum (FBS) and 25 μg/ml gentamycin in a […], 5% CO2, and 100% humidity environment. Leukemic cells were obtained from patients who met the criteria for the diagnosis of AML or CML in blast crisis (see Table 1). Studies were approved by the Wayne State University Institutional Review Board. Informed consent was obtained from all patients. Leukemic blasts from patients were isolated using Ficoll hypaque. Cells at the interface between plasma and red blood cells were diluted with sterile PBS, then layered over Ficoll hypaque (1.077 density), and the leukemic cells collected at the interface. The sample to be studied represented greater than 90% blasts. The patient leukemia samples were grown in RPMI medium supplemented with 10% FBS, gentamycin (25 μg/ml), IL-3 (20 ng/ml), SCF (25 ng/ml), GM-CSF (20 ng/ml) and G-CSF (20 ng/ml). Cell growth was assessed using a cell proliferation kit.

[3] = CFU-GM colony formation, mouse bone marrow; type: cell-based; details: mouse, bone marrow CFU-GM progenitor cells
Procedure: (§1) CFU-GM Colony Formation: The CFU-GM colony assay was performed as described in Parchment et al., (J. Natl. Cancer Inst. 86: 273-280 (1994)).

[4] = system: mouse CFU-GM; experiment: CFU-GM colony formation, mouse bone marrow; type: cell-based
Procedure: as §1

[5] = system: MCF-7; experiment: apoptosis induction / cell death in breast cancer cells; type: cell-based, human
[6] = system: mouse mammary adenocarcinoma 16/C; experiment: mouse mammary adenocarcinoma 16/C in syngeneic female C3H mice
Procedure: The ability of 3-Cl-AHPC to inhibit the in vivo growth of breast carcinoma cells was tested using syngeneic mouse mammary and human breast adenocarcinoma SCID xenograft models.

[7] = system: human MX-1 breast adenocarcinoma cells; experiment: MX-1 human mammary adenocarcinoma growth in SCID mice; type: in vivo
[8] = system: ALL cells obtained from patients; experiment: apoptosis of primary ALL cells obtained from patients; type: cell-based, human; details: primary cultures
[9] = total dose 44 mg/kg, days 1-4, 6-8
[10] = total dose 89 mg/kg, days 1-4, 6-8
[11] = total dose 178 mg/kg, days 1-4, 6, 8

RARα, sequence (P10276 whole entry, species assumed): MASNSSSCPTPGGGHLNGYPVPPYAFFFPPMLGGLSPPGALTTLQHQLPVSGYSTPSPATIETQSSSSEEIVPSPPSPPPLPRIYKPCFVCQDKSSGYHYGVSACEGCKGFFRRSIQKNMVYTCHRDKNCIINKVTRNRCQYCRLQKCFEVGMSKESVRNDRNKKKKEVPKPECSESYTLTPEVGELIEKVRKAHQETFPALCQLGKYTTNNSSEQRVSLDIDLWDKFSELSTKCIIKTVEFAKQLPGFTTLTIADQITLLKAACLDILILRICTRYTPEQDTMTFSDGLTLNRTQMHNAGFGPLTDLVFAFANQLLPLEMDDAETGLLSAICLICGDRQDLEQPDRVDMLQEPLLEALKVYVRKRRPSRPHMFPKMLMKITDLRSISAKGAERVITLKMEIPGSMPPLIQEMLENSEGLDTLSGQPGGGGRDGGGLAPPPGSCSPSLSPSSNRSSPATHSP

Question: For `O=C(O)/C=C/c1ccc(-c2ccc(O)c(C34CC5CC(CC(C5)C3)C4)c2)c(Cl)c1` [Example 3-Cl-AHPC, (E)-4-[3-(1-Adamantyl)-4-hydroxyphenyl]-3-chlorocinnamic acid], which “activation of RARα” value [1] is on record?
Answer: The value was “does not activate”.

Question: And the inhibition at 1 µM [2]?
Answer: Its inhibition at 1 µM is 60 to 90%.

Question: And the IC90 [3]?
Answer: Its IC90 is 0.315 to 0.794 µM.

Question: And the “toxicity to mouse relative to human CFU-GM” value [4]?
Answer: The value was 30 fold.

Question: And the ED50 (concentration that results in 50% cell death) [5]?
Answer: Its ED50 (concentration that results in 50% cell death) is 0.85 µM.

Question: What about the “inhibition of tumor growth” value ([6]; T/C=20%) of the same compound?
Answer: Its value is 80%.

Question: And the “toxicity as evidenced by weight loss of the mice” value ([6]; compared to AHPN)?
Answer: The value was “minimal toxicity”.

Question: What about the “% body wt. loss” value [6, 9] of the same compound?
Answer: The value was 4%.

Question: What about the Drug deaths [6, 9] of the same compound?
Answer: The Drug deaths was 0/5.

Question: What about the T/C % [6, 9] of the same compound?
Answer: The T/C % was greater than 100%.

Question: What about the “% body wt. loss” value [6, 10] of the same compound?
Answer: Its value is −3%.

Question: What about the Drug deaths [6, 10] of the same compound?
Answer: Its Drug deaths is 0/5.

Question: And the T/C % [6, 10]?
Answer: The T/C % was 47%.

Question: And the “% body wt. loss” value [6, 11]?
Answer: Its value is −4%.

Question: What about the Drug deaths [6, 11] of the same compound?
Answer: The Drug deaths was 0/5.

Question: What about the Log cell kill [6, 11] of the same compound?
Answer: The Log cell kill was 0.9.

Question: What about the T/C % [6, 11] of the same compound?
Answer: Its T/C % is 20%.

Question: And the animal deaths ([7]; dose not stated (Table 5))?
Answer: The animal deaths was “no animal deaths”.

Question: And the “inhibition of tumor growth” value ([7]; dose not stated (Table 5))?
Answer: Its value is 70%.

Question: And the weight loss ([7]; dose not stated (Table 5))?
Answer: Its weight loss is “less than 4%”.

Question: What about the “% body wt loss” value ([7]; total dose 91 mg/kg, Qd (3-9)) of the same compound?
Answer: The value was −2%.

Question: And the Drug deaths ([7]; total dose 91 mg/kg, Qd (3-9))?
Answer: The Drug deaths was 0/5.

Question: What about the T/C % ([7]; total dose 91 mg/kg, Qd (3-9)) of the same compound?
Answer: The T/C % was 62%.

Question: What about the “% body wt loss” value ([7]; total dose 140 mg/kg, Qd (3-9)) of the same compound?
Answer: Its value is −4%.

Question: What about the Drug deaths ([7]; total dose 140 mg/kg, Qd (3-9)) of the same compound?
Answer: The Drug deaths was 0/5.

Question: What about the T/C % ([7]; total dose 140 mg/kg, Qd (3-9)) of the same compound?
Answer: Its T/C % is 56%.

Question: What about the “% body wt loss” value ([7]; total dose 210 mg/kg, Qd (3-9)) of the same compound?
Answer: The value was −4%.

Question: What about the Drug deaths ([7]; total dose 210 mg/kg, Qd (3-9)) of the same compound?
Answer: The Drug deaths was 0/5.

Question: What about the Log cell kill ([7]; total dose 210 mg/kg, Qd (3-9)) of the same compound?
Answer: Its Log cell kill is 1.2.

Question: What about the T/C % ([7]; total dose 210 mg/kg, Qd (3-9)) of the same compound?
Answer: Its T/C % is 30%.

Question: What about the “apoptosis of ALL cells obtained from patients” value [8] of the same compound?
Answer: Its value is “resulted in their apoptosis”.
